Measured values from ChEMBL document CHEMBL3217638, “Synthetic modulators of the retinoic acid receptor-related orphan receptors” (Medchemcomm, 2013).
pEC50, pIC50, pKi: −log10 of the molar value. One block for each compound: values may come before it.

How the values were obtained:
[1] = target: T1, Nuclear receptor ROR-gamma (Homo sapiens, UniProt P51449); experiment: Agonist activity at full length human ROR gamma expressed in human Jurkat cells assessed as IL17 promoter activation by luciferase reporter gene assay; assay type: functional, cell-based
T1 sequence (P51449 whole entry): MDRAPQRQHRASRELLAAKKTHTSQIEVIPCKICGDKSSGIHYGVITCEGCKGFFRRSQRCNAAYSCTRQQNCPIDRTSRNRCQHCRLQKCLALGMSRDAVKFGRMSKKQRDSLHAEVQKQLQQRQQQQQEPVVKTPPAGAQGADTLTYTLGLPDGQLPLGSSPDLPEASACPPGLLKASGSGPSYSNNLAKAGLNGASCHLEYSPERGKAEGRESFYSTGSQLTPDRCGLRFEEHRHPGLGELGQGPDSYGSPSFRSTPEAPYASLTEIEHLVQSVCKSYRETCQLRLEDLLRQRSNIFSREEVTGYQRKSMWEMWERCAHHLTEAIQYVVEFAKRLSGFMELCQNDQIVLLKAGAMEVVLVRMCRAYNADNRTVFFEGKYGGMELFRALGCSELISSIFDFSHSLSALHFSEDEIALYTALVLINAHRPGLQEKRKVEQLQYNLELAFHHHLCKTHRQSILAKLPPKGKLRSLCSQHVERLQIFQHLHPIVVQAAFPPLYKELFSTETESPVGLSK

[2] = target: T2, Nuclear receptor ROR-gamma (Homo sapiens) (UniProt P51449); experiment: Binding affinity to human ROR gamma ligand binding domain assessed as thermal stability shift by circular dichroism analysis
T2 sequence (whole entry): T1 sequence (P51449 whole entry)

[3] = target: T1, Nuclear receptor ROR-gamma; experiment: Agonist activity at human His6-tagged ROR gamma ligand binding domain (residues 262 to 507) expressed in Escherichia coli BL21 (DE3) cells assessed as increase in recruitment of coactivator peptide by AlphaScreen biochemical assay; assay type: functional
[4] = Plasma concentration in mouse at 10 mg/kg, ip administered as single dose after 1 hr; assay type: ADME, organism-based; set-up: dose 10 mg/kg, route intraperitoneal
[5] = Plasma concentration in mouse at 10 mg/kg, ip administered as single dose after 8 hrs; assay type: ADME, organism-based; set-up: dose 10 mg/kg, route intraperitoneal
[6] = target: T3, Nuclear receptor ROR-alpha (Mus musculus) (UniProt P51448); details: CHO-K1
T3 sequence (whole entry): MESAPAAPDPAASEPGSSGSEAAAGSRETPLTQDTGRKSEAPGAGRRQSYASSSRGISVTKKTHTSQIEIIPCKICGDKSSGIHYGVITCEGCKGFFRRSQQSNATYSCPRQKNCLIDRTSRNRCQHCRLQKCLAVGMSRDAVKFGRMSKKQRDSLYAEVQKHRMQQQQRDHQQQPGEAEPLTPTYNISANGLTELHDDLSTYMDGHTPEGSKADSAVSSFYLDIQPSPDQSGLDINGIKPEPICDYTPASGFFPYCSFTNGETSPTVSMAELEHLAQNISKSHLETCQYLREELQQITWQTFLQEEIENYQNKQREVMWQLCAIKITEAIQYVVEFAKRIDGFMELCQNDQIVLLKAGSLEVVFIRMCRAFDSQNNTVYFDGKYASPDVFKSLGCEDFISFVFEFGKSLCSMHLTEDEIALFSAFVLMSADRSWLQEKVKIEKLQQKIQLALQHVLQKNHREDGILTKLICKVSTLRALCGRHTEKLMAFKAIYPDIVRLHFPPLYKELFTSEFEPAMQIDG
Description: Inverse agonist activity at mouse ROR alpha expressed in CHO-K1 cells after 24 hrs by luciferase reporter gene assay relative to vehicle control response

[7] = target: T1, Nuclear receptor ROR-gamma; experiment: Displacement of 25-[3H]hydroxycholesterol from ROR gamma (unknown origin) by competitive binding assay
[8] = target: T4, Nuclear receptor ROR-gamma (Mus musculus) (UniProt P51450); details: CHO-K1
T4 sequence (whole entry): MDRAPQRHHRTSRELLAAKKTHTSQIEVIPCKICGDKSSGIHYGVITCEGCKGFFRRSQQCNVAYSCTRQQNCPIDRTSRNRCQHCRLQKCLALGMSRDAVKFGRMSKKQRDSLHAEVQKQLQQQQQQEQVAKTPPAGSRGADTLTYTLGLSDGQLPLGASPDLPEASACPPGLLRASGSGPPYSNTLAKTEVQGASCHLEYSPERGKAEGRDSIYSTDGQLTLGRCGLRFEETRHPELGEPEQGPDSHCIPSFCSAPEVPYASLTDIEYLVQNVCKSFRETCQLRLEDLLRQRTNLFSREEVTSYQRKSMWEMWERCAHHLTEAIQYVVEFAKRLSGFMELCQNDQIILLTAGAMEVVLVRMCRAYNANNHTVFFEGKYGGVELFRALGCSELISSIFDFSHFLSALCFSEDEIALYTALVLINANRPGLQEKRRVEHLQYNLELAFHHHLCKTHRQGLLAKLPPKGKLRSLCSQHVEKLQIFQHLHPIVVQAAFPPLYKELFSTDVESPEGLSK
Description: Inverse agonist activity at mouse ROR gamma expressed in CHO-K1 cells after 24 hrs by luciferase reporter gene assay relative to vehicle control response

[9] = target: T2, Nuclear receptor ROR-gamma (Homo sapiens); experiment: Agonist activity at ROR gamma in human CD4+ T cells assessed as IL-17 production at 3 uM by ELISA; assay type: cell-based; details: T-cell
[10] = target: T5, Nuclear receptor ROR-alpha (Homo sapiens, UniProt P35398); experiment: Displacement of 25-[3H]hydroxycholesterol from GST-tagged ROR alpha ligand binding domain (unknown origin) expressed in Escherichia coli BL21 gold (DE3) cells by radioligand competition assay
T5 sequence (P35398 whole entry): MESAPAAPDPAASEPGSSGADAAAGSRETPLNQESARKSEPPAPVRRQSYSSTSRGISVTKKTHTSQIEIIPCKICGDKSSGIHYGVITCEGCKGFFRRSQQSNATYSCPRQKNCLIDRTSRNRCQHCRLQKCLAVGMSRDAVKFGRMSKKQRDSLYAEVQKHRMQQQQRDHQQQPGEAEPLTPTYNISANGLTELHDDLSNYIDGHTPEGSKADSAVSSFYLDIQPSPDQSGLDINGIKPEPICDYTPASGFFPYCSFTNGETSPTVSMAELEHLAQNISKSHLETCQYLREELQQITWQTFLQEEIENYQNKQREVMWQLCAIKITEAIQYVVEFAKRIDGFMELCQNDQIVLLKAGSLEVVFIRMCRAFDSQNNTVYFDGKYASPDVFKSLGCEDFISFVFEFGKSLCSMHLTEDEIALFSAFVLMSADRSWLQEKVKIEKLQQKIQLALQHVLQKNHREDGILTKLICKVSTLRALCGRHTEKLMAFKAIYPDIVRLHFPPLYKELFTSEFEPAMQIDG

[11] = target: T5, Nuclear receptor ROR-alpha; experiment: Inverse agonist activity at GAL4-fused ROR alpha (unknown origin) expressed in HEK293 cells assessed as inhibition of transcriptional activity after 24 hrs by luciferase reporter gene assay; assay type: cell-based
[12] = Plasma concentration in mouse at 10 mg/kg, ip after 0.5 hrs; assay type: ADME, organism-based; set-up: dose 10 mg/kg, route intraperitoneal
[13] = Plasma concentration in mouse at 10 mg/kg, ip after 4 hrs; assay type: ADME, organism-based; set-up: dose 10 mg/kg, route intraperitoneal
[14] = target: T6, Oxysterols receptor LXR-alpha (Homo sapiens) (UniProt Q13133); experiment: Activation of GAL4-fused LXR alpha (unknown origin) expressed in HEK293T cells after 20 hrs relative to T0901317; assay type: cell-based; details: HEK-293T
T6 sequence (whole entry): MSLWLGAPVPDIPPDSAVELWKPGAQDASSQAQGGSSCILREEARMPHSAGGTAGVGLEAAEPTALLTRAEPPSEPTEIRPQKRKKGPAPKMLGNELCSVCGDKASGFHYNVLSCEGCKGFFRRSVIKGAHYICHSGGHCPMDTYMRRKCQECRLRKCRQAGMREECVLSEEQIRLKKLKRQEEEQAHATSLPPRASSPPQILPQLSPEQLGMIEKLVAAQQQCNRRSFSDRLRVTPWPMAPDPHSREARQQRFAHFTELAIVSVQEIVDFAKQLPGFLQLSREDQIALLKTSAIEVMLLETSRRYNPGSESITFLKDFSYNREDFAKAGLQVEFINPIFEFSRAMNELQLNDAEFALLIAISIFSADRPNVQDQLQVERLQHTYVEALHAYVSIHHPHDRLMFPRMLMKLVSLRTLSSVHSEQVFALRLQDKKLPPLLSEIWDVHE

[15] = target: T1, Nuclear receptor ROR-gamma; experiment: Displacement of 25-[3H]hydroxycholesterol from GST-tagged ROR gamma ligand binding domain (unknown origin) expressed in Escherichia coli BL21 gold (DE3) cells by radioligand competition assay

pEC50 [1]: 7.00
melting temperature shift (delta Tm) [2]: 3 °C
SMILES: Cc1cccc(C(=O)Nc2cc(-c3ccccc3)no2)c1

SMILES: CC(CO)CCC[C@@H](C)[C@H]1CC[C@H]2[C@@H]3CC=C4C[C@@H](O)CC[C@]4(C)[C@H]3CC[C@]12C (stereo partly specified)
pEC50 [3]: 7.70

concentration at 1 h [4]: 3.6 µM
concentration at 8 h [5]: > 0.8 µM
SMILES: O=C(Nc1ccc(C(O)(C(F)(F)F)C(F)(F)F)cc1)c1ccc(C(F)(F)F)cc1

SMILES: CCCOC/C(=N\c1ccc(Cl)cc1C(F)(F)F)n1ccnc1
IC20 [6]: 10000 nM

SMILES: CC(c1ccccc1)(c1ccc(O)cc1)c1ccc(O)cc1
pIC50 [7]: < 5.00

SMILES: CCCCC(O)(Cn1cncn1)c1ccc(Cl)cc1Cl (stereo unspecified)
IC20 [6]: 10000 nM
IC20 [8]: 3000 nM

pEC50 [1]: 7.00
Activity [9]: 220%
melting temperature shift (delta Tm) [2]: 3 °C
SMILES: Cc1cc(C)c2nc(NC(=O)c3sccc3C)sc2c1

SMILES: CC(C)CC[C@H](O)[C@@H](C)[C@H]1CC[C@H]2[C@@H]3CC=C4C[C@@H](O)CC[C@]4(C)[C@H]3CC[C@]12C
pEC50 [3]: 7.70

SMILES: CC(C)CCC[C@@](C)(O)[C@H]1CC[C@H]2[C@@H]3CC=C4C[C@@H](O)CC[C@]4(C)[C@H]3CC[C@@]21C
pEC50 [3]: 7.70

pKi [10]: 6.66
pEC50 [11]: 6.32
concentration at 0.5 h [12]: 9 µM
concentration at 4 h [13]: > 0.36 µM
SMILES: O=S(=O)(Nc1ccc(C(O)(C(F)(F)F)C(F)(F)F)cc1)c1cccs1

SMILES: CC(C)CC[C@@H](O)[C@@H](C)[C@H]1CC[C@H]2[C@@H]3CC=C4C[C@@H](O)CC[C@]4(C)[C@H]3CC[C@]12C [22(R)-HYDROXYCHOLESTEROL]
pEC50 [3]: 7.70

Activity [14]: < 5%
SMILES: OC(c1ccc(-c2ccc(CN3CCN(Cc4ccncc4)CC3)cc2)c(F)c1)(C(F)(F)F)C(F)(F)F

SMILES: CC(C)CCC[C@@H](C)[C@H]1CC[C@H]2[C@@H]3[C@@H](O)C=C4C[C@@H](O)CC[C@]4(C)[C@H]3CC[C@]12C
pKi [15]: 8.00
